Laboratory results: patent US11440880B2, “Thalidomide analogs and methods of use” (The USA, as represented by the Secretary, Department of …, priority 2015, dated 2022)

Legend:
[1] = system: fli1:EGFP zebrafish embryos (intersegmental vessel growth); assay: fli1:EGFP zebrafish embryo angiogenesis assay; format: in vivo; parameters: fli1:EGFP angiogenesis n (survived/tested): concentration or dose not given beside the values; conditions: for minimal effective concentration: Danio rerio, lowest concentration producing an effect, compounds not producing an effect shown at the highest evaluated concentration; for fli1:EGFP angiogenesis n (survived/tested): embryos alive after 24 hours of exposure
Outline: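 fli1:EGFP embryos grown 24 hpf, dechorionated and exposed to compound or vehicle over a range of concentrations for up to 24 h, with CPS49 as positive control. Imaged at 48 hpf for intersegmental vessel formation and growth; survival after 24 h exposure recorded, and values reflect the lowest concentration producing an effect.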

RAW 264.7 cells = assay: Cell viability (CellTiter 96 AQueous One) of LPS-challenged RAW 264.7 cells; format: cell-based, mouse; parameters: key: NS=not significant; a “+” sign=anti-inflammatory or increased cell numbers; a “−” sign=cell toxicity or pro-inflammatory
Outline: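 RAW 264.7 murine macrophages pretreated 1 h with compound or DMSO vehicle, then challenged with LPS (serotype 055:B5) at 30 or 60 ng/mL final for 24 h. After media replacement, viability measured by tetrazolium (MTS) conversion, absorbance at 490 nm, reported as O.D.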

[2] = system: mpo:GFP zebrafish embryos (neutrophil migration to the wound site); assay: mpo:GFP zebrafish fin-clip neutrophil migration (inflammation) assay; format: in vivo; parameters: mpo:GFP inflammation n (survived/tested): concentration or dose not given beside the values; conditions: for minimal effective concentration: Danio rerio, Neutrophil, lowest concentration producing an effect, compounds not producing an effect shown at the highest evaluated concentration; for mpo:GFP inflammation n (survived/tested): embryos survived/tested at the concentration given
Description: Zebrafish embryology: The use of zebrafish embryo (Danio rerio) bioassays as a preclinical model in the classification of novel compounds has increased in recent years due to several factors including; low cost, ease of maintenance, speed of embryonic development, transparency of the embryos and genetic conservation between zebrafish and humans (Howe et al., Nature 2013; 496:498; Therapontos et al., PNAS 2009, 106:8573; Mahony et al., PNAS 2013, 110:12703; Beedie et al., Oncotarget 2016, 7(22):33237; Beedie et al., Mol. Cancer Ther. 2015, 14(10):2228). Two established zebrafish reporter lines were used—the fli1:EGFP line, where the fli1 promoter drives expression of enhanced green fluorescent protein within the developing vasculature (Lawson et al., 2002), and the Tg(mpo::EGFP) line (also known as mpo:GFP), which expresses green fluorescent protein via the neutrophil specific myeloperoxidase promoter (Renshaw et al., Blood 2006, 108:3976). The use of these zebrafish transgenic reporter lines allows for the identification of potential anti-angiogenic and anti-inflammatory compounds respectively, and both have been used previously to successfully classify the action of thalidomide analogs (Therapontos et al., 2009; Mahony et al., 2013; Beedie et al., Oncotarget 2016, 7(22):33237; Beedie et al., Mol. Cancer Ther. 2015, 14(10):2228). Zebrafish embryos were treated with analogs as previously described (Mahony et al., 2013). Briefly, fli1:EGFP embryos were collected and embryos were allowed to develop for 24 hours. Embryos were dechorionated manually and exposed to test compounds or vehicle control for a further 24 hours, imaged and analyzed for intersegmental vessel (ISV) growth. At 24 hours post fertilisation (hpf) the ISVs were ideal to study to visualize and analyze the actions of compounds on angiogenesis. At this time point ISVs were rapidly forming beneath the developing head, over the body and had yet to form in the tail (Lawson and Weinstein, Developmental Biology 2002, 248:307; Therapontos and Vargesson, Developmental Dynamics 2010, 239:2761). Additionally, these sprouts would go on to form the bilateral dorsal longitudinal anastomotic vessels. By treating before this fusion and formation occurs, the effect of each compound on the individual vessels as well as overall patterning structural integrity (Isogai et al., Development 2003, 130:5281) could be determined. Tg(mpo::EGFP) were tail fin clipped as previously detailed (Renshaw et al., 2006; Mahony et al., 2013; Beedie et al., Oncotarget 2016, 7(22):33237; Beedie et al., Mol. Cancer Ther. 2015, 14(10):2228) and incubated with test compounds or vehicle control at 72 hours post fertilization. Fish were imaged at 24 hours and the number of migratory neutrophils present at the wound site were counted. Compounds inducing an at least 50% reduction of neutrophils to the wound site were considered to have anti-inflammatory properties in this system. All larvae were assessed for viability and morphological integrity.
To assess the immunomodulatory effects of the thalidomide analogs, the mpo:gfp transgenic zebrafish line (Renshaw et al., Blood 2006, 108:3976-3978) was utilized because it is an accepted model of inflammation, and can be used to test the effect of anti-inflammatory agents. These embryos express GFP-tagged myeloperoxidase, where green fluorescence marks the neutrophil cells involved in the inflammatory response process, for example following injury, from 72 hours post fertilization (Renshaw et al., 2006; Mahony et al., 2013; Beedie et al., Oncotarget 2016, 7(22):33237). At 72 hpf the dorsal third of the tail fin was removed and the embryos were immersed in the desired compound or vehicle (FIGS. 5A-5C). The embryos were examined for the effect on the inflammatory response quantified as an induction and migration of neutrophils to the wound site 24 hours later.

[3] = system: nitrite levels in the culture media; assay: Nitrite level (Griess Reagent System) in LPS-challenged RAW 264.7 cells; format: cell-based, mouse; parameters: key: NS=not significant; a “+” sign=anti-inflammatory or increased cell numbers; a “−” sign=cell toxicity or pro-inflammatory; conditions: LPS 30 or 60 ng/mL, 24 h
Outline: (§1)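 RAW 264.7 cells pretreated 1 h with compound in DMSO vehicle, then challenged with LPS (30 or 60 ng/mL) for 24 h at 37° C. Conditioned-media nitrite by Griess (520 nm, sodium nitrite standard curve, 1.5 μM cutoff) in μM; mouse TNF-α by ELISA as pg/ml or % change from control.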

TNF-α protein = TNF-α protein level (ELISA) in LPS-challenged RAW 264.7 cells; format: cell-based, mouse; parameters: key: NS=not significant; a “+” sign=anti-inflammatory or increased cell numbers; a “−” sign=cell toxicity or pro-inflammatory; conditions: LPS 30 or 60 ng/mL, 24 h
Outline: as §1

SMILES | minimal effective concentration [1] [µg/mL] | fli1:EGFP angiogenesis n (survived/tested) [1] | Viability (RAW 264.7 cells; 1 μM) | Viability (RAW 264.7 cells; 10 μM) | Viability (RAW 264.7 cells; 30 μM) | minimal effective concentration [2] [µg/mL] | mpo:GFP inflammation n (survived/tested) [2] | Nitrite ([3]; 1 μM) | Nitrite ([3]; 10 μM) | Nitrite ([3]; 30 μM) | TNF-α (TNF-α protein; 1 μM) | TNF-α (TNF-α protein; 10 μM) | TNF-α (TNF-α protein; 30 μM)
O=C1c2cccc([N+](=O)[O-])c2CN1c1nc2ccc(C(F)(F)F)cc2s1 [Compound 63] | 200 | 6/23 | NS | NS | − | 100 | 12/20 | − | − | − | NS | NS | NS
CC1(C)S[C@@H]2[C@H](N3C(=O)c4ccccc4C3=O)C(=O)N2[C@H]1C(=O)O [Compound 64] | 10 | 8/15 | NS | NS | NS | 10 | 8/15 | NS | NS | NS | NS | NS | NS
CC1(C)S[C@@H]2[C@H](N3Cc4ccccc4C3=O)C(=O)N2[C@H]1C(=O)O [Compound 65, (1)-(2S,5R,6R)-3,3-Dimethyl-7-oxo-6-(1-oxo-1,3-dihydro-1H-isoindol-2-yl)-4-thia-1-azabicyclo[3.2.0]heptane-2-carboxylic acid] | 200 | 13/13 | NS | NS | NS | 200 | 10/20 | NS | NS | NS | − | − | −
FC(F)(F)c1ccc(/N=C2/c3ccccc3CN2c2ccc(C(F)(F)F)cn2)nc1 [Compound 66] | 100 | 15/15 | − | NS | − | 100 | 6/15 | NS | NS | + | NS | NS | +
FC(F)(F)c1ccnc(/N=C2/c3ccccc3CN2c2cc(C(F)(F)F)ccn2)c1 [Compound 67, N-(4-Trifluoromethylpyridin-2-yl)-1-imino(4-trifluoromethylpyridin-2-yl)-isoindoline] | 10 | 13/22 | NS | NS | NS | 200 | 6/15 | NS | NS | + | NS | NS | NS
O=C1c2ccccc2CN1c1ccc(C(F)(F)F)cc1 [Compound 68] | 10 | 22/34 | NS | NS | NS | 100 | 5/15 | NS | NS | NS | NS | NS | NS
O=C1c2ccccc2CN1C12CC3CC(CC(C3)C1)C2 [Compound 69] | 10 | 6/14 | NS | NS | NS | 200 | 8/17 | NS | NS | NS | NS | NS | NS
O=C1c2ccccc2CN1CC12CC3CC(CC(C3)C1)C2 [Compound 70] | 10 | 8/10 | NS | NS | NS | 200 | 10/15 | NS | NS | + | NS | + | +
O=C1c2ccccc2CN1C1C2CC3CC(C2)CC1C3 (centres unmarked) [Compound 72, 2,3-Dihydro-2-(tricyclo[3.3.1.1^3,7]dec-2-yl)-1H-isoindol-1-one] | 200 | 9/20 | + | NS | − | 10 | 6/15 | NS | NS | + | + | NS | +
O=C1c2ccccc2CN1C12CC3CC(CC1C3)C2 [Compound 73] | 10 | 6/12 | NS | NS | − | 10 | 7/13 | NS | + | + | NS | NS | +
CC(N1Cc2ccccc2C1=S)C12CC3CC(CC(C3)C1)C2 (centres unmarked) [Compound 74, 2,3-Dihydro-2-[1-(1-tricyclo[3.3.1.1^3,7]dec-1-yl)ethyl]-1H-isoindol-1-thione] | 10 | 9/15 | NS | NS | NS | 200 | 6/14 | NS | NS | + | NS | NS | NS
